Results on eleven molecules are retold here after patent US20250368649A1, “TETRAHYDROPYRIDOPYRIMIDINE PAN-KRAS INHIBITORS” (Mirati Therapeutics, Inc., priority 2022, published 2025).

The subject of one assay is H727 cells. As to the kind of experiment: Inhibition of KRas-mediated phosphorylation of ERK (Cisbio HTRF pERK), H727 cells. Conditions: Homo sapiens, NCI-H727, 3 h, 3 hr compound incubation. It is filed as cell-based.
Another assay addresses KRas G12V (Homo sapiens, UniProt P01116, G12V). As to the kind of experiment: biochemical. Conditions: Binding to KRas (IC50 nM) G12V, TR-FRET displacement, KRas G12V. Background: Time-resolved FRET reads energy transfer from a long-lived donor to a nearby acceptor.
The test system of another assay is PSN1 cells. Description: Inhibition of KRas-mediated phosphorylation of ERK (Cisbio HTRF pERK), PSN1 cells. It is filed as cell-based. To be noted: Homo sapiens, PSN1, 3 h. The protocol: (§1) Inhibition of KRas Phosphorylation of ERK (HTRF) by Exemplary Compounds of Formula (I) Cisbio HTRF Advanced pERK Assay Catalog #64AERPEH • Cells: MKN1, PSN1 • Procedure: • Day 1: Seed 6,000 cells/well -25 µl/well in 384-well white solid bottom plate; RPM1_10% FBS.

In a further assay the target is KRas G12D (Homo sapiens, UniProt P01116, G12D). Description: biochemical. Conditions: Binding to KRas (IC50 nM) G12D, TR-FRET displacement, KRas G12D.
Chain of KRas G12D (P01116 1-169 isoform P01116-2 G12D): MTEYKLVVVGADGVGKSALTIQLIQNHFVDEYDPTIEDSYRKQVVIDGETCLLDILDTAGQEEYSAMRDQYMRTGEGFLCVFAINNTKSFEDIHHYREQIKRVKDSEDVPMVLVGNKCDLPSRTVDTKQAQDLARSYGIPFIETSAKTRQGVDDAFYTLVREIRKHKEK
For the next assay, the system named is ASPC1 cells. As to the kind of experiment: Inhibition of KRas-mediated phosphorylation of ERK (Cisbio HTRF pERK), ASPC1 cells. It is filed as cell-based. To be noted: Homo sapiens, ASPC1, 3 h, AsPC-1 cells, 3 hr compound incubation.
The next assay has as its system MKN1 cells. Description: Inhibition of KRas-mediated phosphorylation of ERK (Cisbio HTRF pERK), MKN1 cells. It is filed as cell-based. To be noted: Homo sapiens. On the procedure:
as §1

The next assay relates to A549 cells. Description: Inhibition of KRas-mediated phosphorylation of ERK (Cisbio HTRF pERK), A549 cells. It is filed as cell-based. To be noted: Homo sapiens, A549, 3 h, 3 hr compound incubation, Cisbio pERK HTRF.
Another assay deals with KRas G12R (Homo sapiens, UniProt P01116, G12R). Description: biochemical. To be noted: Binding to KRas (IC50 nM) G12R, TR-FRET displacement, KRas G12R.
Chain of KRas G12R (P01116 1-169 isoform P01116-2 G12R): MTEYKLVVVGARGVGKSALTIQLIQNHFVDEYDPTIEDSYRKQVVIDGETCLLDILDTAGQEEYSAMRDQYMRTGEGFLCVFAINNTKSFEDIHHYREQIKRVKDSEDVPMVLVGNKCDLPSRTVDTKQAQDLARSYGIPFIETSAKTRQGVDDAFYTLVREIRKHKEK
Another assay deals with HCT116 cells. Description: Inhibition of KRas-mediated phosphorylation of ERK (Cisbio HTRF pERK), HCT116 cells. The class given is cell-based. Conditions: Homo sapiens, HCT-116, 3 h, 3 hr compound incubation, Cisbio pERK HTRF.
Setting [1] is: 3 hour compound incubation, Cisbio pERK HTRF.
The mark [2] stands for this setting: MKN-1, 3 hour compound incubation, Cisbio pERK HTRF.
Setting [3] is: MKN-1, 3 hr compound incubation.

Molecules are shown by their SMILES. Some results are limits rather than exact numbers.

Chain of KRas G12V (P01116 1-169 isoform P01116-2 G12V): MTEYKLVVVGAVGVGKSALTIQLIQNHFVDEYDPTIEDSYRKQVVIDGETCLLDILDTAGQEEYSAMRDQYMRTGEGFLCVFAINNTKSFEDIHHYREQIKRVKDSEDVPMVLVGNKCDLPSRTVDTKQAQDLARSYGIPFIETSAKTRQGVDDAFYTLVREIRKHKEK

Turning to `CCc1c(F)ccc2cc(O)cc(N3CCc4c(nc(OC[C@@]56CCCN5C[C@H](F)C6)nc4N4CCCn5nc(N(C)C)cc5C4)C3)c12` [Example 405, 4-(4-(2-(dimethylamino)-7,8-dihydro-4H-pyrazolo[1,5-a][1,4]diazepin-5(6H)-yl)-2-(((2R,7aS)-2-fluorotetrahydro-1H-pyrrolizin-7a(5H)-yl)methoxy)-5,8-dihydropyrido[3,4-d]pyrimidin-7(6H)-yl)-5-ethyl-6-fluoronaphthalen-2-ol], the IC50 with H727 cells (Cisbio pERK HTRF) was 308 nM; at KRas G12V it was 9 nM; with PSN1 cells (setting [1]), greater than 10000 nM; at KRas G12D, 5 nM; with ASPC1 cells (Cisbio pERK HTRF), 339 nM; in the assay on MKN1 cells (setting [2]) it was 99.9 nM. The values for the IC50 in the assay with A549 cells and on KRas G12R were 273 nM and 3 nM, respectively.
As to `CCc1c(F)ccc2cc(O)cc(N3CCc4c(nc(OC[C@@]56CCCN5C[C@H](F)C6)nc4N4C[C@H]5C[C@@H](C4)C(=O)NC5=O)C3)c12` [Example 416, (1R,5S)-7-(7-(8-ethyl-7-fluoro-3-hydroxynaphthalen-1-yl)-2-(((2R,7aS)-2-fluorohexahydro-1H-pyrrolizin-7a-yl)methoxy)-5,6,7,8-tetrahydropyrido[3,4-d]pyrimidin-4-yl)-3,7-diazabicyclo[3.3.1]nonane-2,4-dione], the 50% inhibitory concentration (IC50) is 346 nM with H727 cells (Cisbio pERK HTRF); less than 2 nM at KRas G12V; 4710 nM in the assay with PSN1 cells (setting [1]); 4 nM on KRas G12D; 486 nM with ASPC1 cells (Cisbio pERK HTRF); 19.9 nM in the assay on MKN1 cells (setting [2]). Further, the IC50 is 100 nM in the assay on A549 cells and less than 2 nM at KRas G12R.
In the case of `CCc1c(F)ccc2cc(O)cc(N3CCc4c(nc(OC[C@@]56CCCN5C[C@H](F)C6)nc4N4CCCC5(CSC5)C4)C3)c12` [Example 421, 5-ethyl-6-fluoro-4-(2-(((2R,7aS)-2-fluorohexahydro-1H-pyrrolizin-7a-yl)methoxy)-4-(2-thia-6-azaspiro[3.5]nonan-6-yl)-5,6-dihydropyrido[3,4-d]pyrimidin-7(8H)-yl)naphthalen-2-ol], the IC50 in the assay on H727 cells (Cisbio pERK HTRF) is 275 nM; in the assay on HCT116 cells it was 3260 nM; on KRas G12V, less than 2 nM; in the assay on PSN1 cells (setting [1]), 9630 nM; at KRas G12D it was 5 nM; with ASPC1 cells (Cisbio pERK HTRF) it was 377 nM. For the same molecule, the IC50 came out at 449 nM in the assay on MKN1 cells (setting [2]), 322 nM with A549 cells and 3 nM at KRas G12R.
Regarding `CCc1c(F)ccc2cc(O)cc(N3CCc4c(nc(OC[C@@]56CCCN5C[C@H](F)C6)nc4N4Cc5cn(C(=O)N(C)C)nc5CC(C)(C)C4)C3)c12` [Example 424, 5-(7-(8-ethyl-7-fluoro-3-hydroxynaphthalen-1-yl)-2-(((2R,7aS)-2-fluorohexahydro-1H-pyrrolizin-7a-yl)methoxy)-5,6,7,8-tetrahydropyrido[3,4-d]pyrimidin-4-yl)-N,N,7,7-tetramethyl-5,6,7,8-tetrahydropyrazolo[4,3-c]azepine-2(4H)-carboxamide], the concentration for half-maximal inhibition (IC50) was 460 nM in the assay on H727 cells (Cisbio pERK HTRF); 5 nM on KRas G12V; greater than 10000 nM in the assay on PSN1 cells (setting [1]); 31 nM at KRas G12D; 926 nM in the assay on ASPC1 cells (Cisbio pERK HTRF); 148 nM with MKN1 cells (setting [2]). The IC50 in the assay on A549 cells was determined as 698 nM; on KRas G12R, 9 nM.
As for `CCc1c(F)ccc2cc(O)cc(N3CCc4c(nc(OC[C@]56CCCN5[C@H](COC(=O)N(C)C)CC6)nc4N4CCC[C@@](C)(O)C4)C3)c12` [Example 435, ((3S,7aR)-7a-(((7-(8-ethyl-7-fluoro-3-hydroxynaphthalen-1-yl)-4-((R)-3-hydroxy-3-methylpiperidin-1-yl)-5,6,7,8-tetrahydropyrido[3,4-d]pyrimidin-2-yl)oxy)methyl)hexahydro-1H-pyrrolizin-3-yl)methyl dimethylcarbamate], the half-inhibitory concentration (IC50) was 578 nM in the assay with H727 cells (Cisbio pERK HTRF); 215 nM with HCT116 cells; 3 nM on KRas G12V; 4200 nM in the assay with PSN1 cells (setting [1]); 2 nM at KRas G12D; 172 nM in the assay on ASPC1 cells (Cisbio pERK HTRF). Also, the concentration for half-maximal inhibition (IC50) in the assay with MKN1 cells (setting [2]) came to 40 nM; in the assay on A549 cells, 164 nM; at KRas G12R, 2 nM.
Regarding `O=C1CC2(CCCN(c3nc(OC[C@@]45CCCN4C[C@H](F)C5)nc4c3CCN(c3cc(O)cc5ccc(F)c(Cl)c35)C4)C2)C(=O)N1` (stereo partly drawn) [Example 467, 7-(7-(8-chloro-7-fluoro-3-hydroxynaphthalen-1-yl)-2-(((2R,7aS)-2-fluorohexahydro-1H-pyrrolizin-7a-yl)methoxy)-5,6,7,8-tetrahydropyrido[3,4-d]pyrimidin-4-yl)-2,7-diazaspiro[4.5]decane-1,3-dione], the IC50 was 257 nM in the assay with H727 cells (Cisbio pERK HTRF); 296 nM in the assay on HCT116 cells; less than 2 nM at KRas G12V; 841 nM with PSN1 cells (setting [1]); less than 2 nM at KRas G12D; 533 nM with ASPC1 cells (Cisbio pERK HTRF). Moreover, the results for the half-inhibitory concentration (IC50) in the assay on MKN1 cells (setting [2]), in the assay on A549 cells and on KRas G12R were 37.2 nM, 226 nM and less than 2 nM, respectively.
As for `CCc1c(F)ccc2cc(O)cc(N3CCc4c(nc(OC[C@@]56CCCN5C[C@H](F)C6)nc4N4CCCn5nc(C(=O)N6CC7CN(C8COC8)CC7C6)cc5C4)C3)c12` (some centres unmarked) [Example 503], the IC50 in the assay on H727 cells (Cisbio pERK HTRF) was 19 nM; on KRas G12V it was less than 2 nM; in the assay on PSN1 cells (setting [1]), 3230 nM; at KRas G12D, less than 2 nM; with ASPC1 cells (Cisbio pERK HTRF), 11 nM; with MKN1 cells (setting [2]), 10.7 nM. This molecule had an IC50 on KRas G12R of less than 2 nM.
As to `O=S1(=O)CCC2(CCCN(c3nc(OC[C@@]45CCCN4C[C@H](F)C5)nc4c3CCN(c3cc(O)cc5cccc(Cl)c35)C4)C2)N1` (stereo partly drawn) [Example 513, 7-(7-(8-chloro-3-hydroxynaphthalen-1-yl)-2-(((2R,7aS)-2-fluorohexahydro-1H-pyrrolizin-7a-yl)methoxy)-5,6,7,8-tetrahydropyrido[3,4-d]pyrimidin-4-yl)-2-thia-1,7-diazaspiro[4.5]decane 2,2-dioxide], the IC50 in the assay with H727 cells (Cisbio pERK HTRF) is 92 nM; on KRas G12V, less than 2 nM; with PSN1 cells (setting [1]), 949 nM; at KRas G12D, 3 nM; with ASPC1 cells (Cisbio pERK HTRF) it was 27 nM; in the assay on MKN1 cells (setting [2]), 6 nM. At KRas G12R, the 50% inhibitory concentration (IC50) is less than 2 nM.
As to `CCc1c(F)ccc2cc(O)cc(N3CCc4c(nc(OC[C@@]56CCCN5C[C@H](F)C6)nc4N4CCCCn5nc(N)cc5C4)C3)c12` [Example 590, 4-(4-(2-amino-6,7,8,9-tetrahydropyrazolo[1,5-a][1,4]diazocin-5(4H)-yl)-2-(((2R,7aS)-2-fluorotetrahydro-1H-pyrrolizin-7a(5H)-yl)methoxy)-5,8-dihydropyrido[3,4-d]pyrimidin-7(6H)-yl)-5-ethyl-6-fluoronaphthalen-2-ol], the half-inhibitory concentration (IC50) was determined as 277 nM in the assay on H727 cells (Cisbio pERK HTRF); 2 nM on KRas G12V; 9600 nM in the assay with PSN1 cells (setting [1]); 4 nM on KRas G12D; 391 nM with ASPC1 cells (Cisbio pERK HTRF); 40.8 nM in the assay on MKN1 cells (setting [2]). In addition, the 50% inhibitory concentration (IC50) at KRas G12R is less than 2 nM.
Consider `CCc1c(F)ccc2cc(O)cc(N3CCc4c(nc(OC[C@@]56CCCN5C[C@H](F)C6)nc4N4CCCn5ncc(CO)c5C4)C3)c12` [Example 633, 5-ethyl-6-fluoro-4-(2-(((2R,7aS)-2-fluorotetrahydro-1H-pyrrolizin-7a(5H)-yl)methoxy)-4-(3-(hydroxymethyl)-7,8-dihydro-4H-pyrazolo[1,5-a][1,4]diazepin-5(6H)-yl)-5,8-dihydropyrido[3,4-d]pyrimidin-7(6H)-yl)naphthalen-2-ol], for which the IC50 is 100 nM in the assay with H727 cells; less than 2 nM at KRas G12V; greater than 10000 nM in the assay with PSN1 cells (3 hr compound incubation); less than 2 nM on KRas G12D; 48 nM with ASPC1 cells; 70.3 nM in the assay on MKN1 cells (setting [3]). In addition, on KRas G12R, the IC50 is less than 2 nM.
`CCc1c(F)ccc2cc(O)cc(N3CCc4c(nc(OC[C@@]56CCCN5C[C@H](F)C6)nc4N4CCCn5nc(C(=O)N(C6CC6)C6CC6)cc5C4)C3)c12` [Example 637, N,N-dicyclopropyl-5-(7-(8-ethyl-7-fluoro-3-hydroxynaphthalen-1-yl)-2-(((2R,7aS)-2-fluorotetrahydro-1H-pyrrolizin-7a(5H)-yl)methoxy)-5,6,7,8-tetrahydropyrido[3,4-d]pyrimidin-4-yl)-5,6,7,8-tetrahydro-4H-pyrazolo[1,5-a][1,4]diazepine-2-carboxamide]: the half-inhibitory concentration (IC50) is 9 nM in the assay on H727 cells; less than 2 nM at KRas G12V; 6000 nM with PSN1 cells (3 hr compound incubation); less than 2 nM on KRas G12D; 11 nM with ASPC1 cells; 1.4 nM in the assay on MKN1 cells (setting [3]). Moreover, the half-maximal inhibitory concentration (IC50) at KRas G12R is less than 2 nM.

By IC50 is commonly meant the point on the concentration scale where inhibition reaches its midpoint.
